Data published in ChEMBL document CHEMBL1137683, “Synthesis and in vitro cysticidal activity of new benzimidazole derivatives” (Eur J Med Chem, 2009).

Legend:
[1] = Octanol-water partition coefficient, log P of the compound; assay type: physicochemical
Taenia crassiceps [2] = test: Antiparasitic activity against Taenia crassiceps cysts ORF strain assessed as cysts mortality at 1.70 uM after 11 days by Trypan blue exclusion test; assay type: functional
Taenia crassiceps [3] = test: Antiparasitic activity against Taenia crassiceps cysts ORF strain assessed as cysts mortality at 0.28 uM after 11 days by Trypan blue exclusion test; assay type: functional
Taenia crassiceps [4] = test: Antiparasitic activity against Taenia crassiceps cysts WFU strain assessed as cysts mortality at 1.70 uM after 11 days by Trypan blue exclusion test; assay type: functional
Taenia crassiceps [5] = test: Antiparasitic activity against Taenia crassiceps cysts WFU strain assessed as cysts mortality at 0.28 uM after 11 days by Trypan blue exclusion test; assay type: functional

SMILES | logP [1] | Activity (Taenia crassiceps [2]) [%] | Activity (Taenia crassiceps [3]) [%] | Activity (Taenia crassiceps [4]) [%] | Activity (Taenia crassiceps [5]) [%]
CNC(=O)c1ccc2[nH]c(NC(=O)OC)nc2c1 | 0.68 | 0 | 0 | – | –
COC(=O)Nc1nc2cc(C(=O)N3CCCCC3)ccc2[nH]1 | 1.65 | 62 | 37 | 16.7 | 9.3
COC(=O)Nc1nc2cc(Oc3cccc4ccccc34)c(Cl)cc2[nH]1 | 3.56 | – | – | – | –
COC(=O)Nc1nc2cc(C(=O)OCc3ccc([N+](=O)[O-])cc3)ccc2[nH]1 | 3.12 | 68 | 41 | 26 | 22.6
CSc1nc2cc(C(=O)N3CCN(C)CC3)ccc2[nH]1 | – | 0 | 0 | – | –
CSc1nc2cc(C(=O)N3CCCCC3)ccc2[nH]1 | – | 0 | 0 | – | –
CSc1nc2cc(C(=O)N3CCCCC3)c(Cl)cc2[nH]1 | – | 0 | 0 | – | –
CCCSc1ccc2[nH]c(N(C)C(=O)OC)nc2c1 | – | 0 | 0 | – | –
CCCSc1ccc2nc(NC(=O)OC)n(C)c2c1 | – | 0 | 0 | – | –
CCCSc1ccc2c(c1)nc(NC(=O)OC)n2C | – | 0 | 0 | – | –
CSc1nc2cc(C(=O)N3CCC(C)CC3)ccc2[nH]1 | – | 0 | 0 | – | –
CSc1nc2cc(C(=O)N3CCC(C)CC3)c(Cl)cc2[nH]1 | – | 0 | 0 | – | –
COC(=O)Nc1nc2cc(Cl)ccc2[nH]1 | 2.09 | 23 | 15 | 8 | 5
CCC[S+]([O-])c1ccc2[nH]c(NC(=O)OC)nc2c1 (stereo not given) [ALBENDAZOLE OXIDE] | 1.54 | 88 | 46 | 35 | 25
